Laboratory results reported in patent US10047122B2, “Peptide and peptide mimetic binding antagonists of polo-like kinase 1 polo box domain and methods of use” (The United States of America, as represented by the …, priority 2013, dated 2018).
pIC50: −log10 of the molar value. Numbered stars: 1 amine (or outer) side, 2 acyl side, 3 side chain; on linkers, the order of the positions; unused ones are H or OH. Square brackets hold non-standard residues; d marks the D form. Peptide text beside a SMILES is read from it. X1 = C[C@@H](OP(=O)(OCOC(=O)C(C)(C)C)OCOC(=O)C(C)(C)C)[C@H](N[*:1])C(=O)[*:2]; X2 = C[C@@H](CP(=O)(OCOC(=O)C(C)(C)C)OCOC(=O)C(C)(C)C)[C@H](N[*:1])C(=O)[*:2]; His(π-(CH2)8Ph) = N[C@@H](Cc1cncn1CCCCCCCCc1ccccc1)C(=O)O

Tests used:
Porcine Liver Esterase = assay: PLE hydrolysis experiment (enzymatic deprotection of POM-protected peptides); type: in vitro ADME; details: pig, 200 μM peptide, pH 7.4, 37° C.
Protocol: Hydrolysis assays were run on five POM-protected peptides (see below):
(§1) There are three types of hydrolysis experiment performed in these peptides.
Type 1: 200 μM peptide with Porcine Liver Esterase (58 units, according the protocol presented in Srivastva, D. N.; Farquhar, D. Bioorg. Chem. 1984, 12, 118).
PLE hydrolysis experiment. 0.05M potassium phosphate buffer (pH 7.4) was placed in centrifuge tube. A solution of selected peptide in methanol was added to the buffer. Final concentration of the peptide was 200 μM, MeOH was less than 1% in solution. Take 1 mL of the above solution, then added Pig liver esterase (57.6 units). The reaction mixture was then incubated at 37° C. by shaking. At different time point, certain amount (50 μL) of reaction mixture was taken and placed in a separate Eppendorf tube containing 1 equiv. volume MeCN (50 μL). After work-up, the hydrolysis product was monitored by LC-MS.

[1] = Cell lysate hydrolysis experiment; type: in vitro ADME; details: 1 μM peptide in cell lysate, 37° C.; read-out: Half-life of peptides in cell lysate
Protocol: as §1
Type 3: 1 μM peptide in cell lysate.
Cell lysate hydrolysis experiment. Cell lysate was placed in 96-well plate. A solution of selected peptide in DMSO was added to the cell lysate. Final concentration of the peptide was 1 μM, DMSO was less than 1% in solution. The reaction mixture was then incubated at 37° C. by shaking. At different time point, 1 equiv. by volume of MeCN was added to well to quench the reaction. After work-up, the hydrolysis product was monitored by LC-MS.

[2] = Culture medium hydrolysis experiment; type: in vitro ADME; details: for half-life at 1 μM: 1 μM peptide in culture medium
Protocol: as §1
Type 2: 1 μM peptide in culture medium and 200 μM peptide in culture medium.
Culture medium hydrolysis experiment. Culture medium was placed in centrifuge tube. A solution of selected peptide in methanol was added to the culture medium. Final concentration of the peptide was 1 μM or 200 μM, MeOH was less than 1% in solution. The reaction mixture was then incubated at 37° C. by shaking. At different time point, certain amount (50 μL) of reaction mixture was taken and placed in a separate Eppendorf tube containing 1 equiv. volume MeCN (50 μL). After work-up, the hydrolysis product was monitored by LC-MS.

[3] = molecular target: T1, Plk1 PBD (cellular lysates expressing HA-EGFP-Plk1) (Homo sapiens, UniProt P53350); assay: ELISA-based PBD-binding inhibition assay; details: immobilized biotinylated p-T78 peptide, lysates with full-length Plk1
T1 construct: cell lysates containing full-length Plk1 were incubated with test peptides; expressed in transfected cells; host or cells: 293A cells infected with adenovirus expressing HA-EGFP-Plk1, arrested with nocodazole
Protocol: An ELISA-based PBD-binding inhibition assay was carried out using an immobilized biotinylated 9-mer p-T78 peptide {Biotin-C—(CH2)6-(CH2)6-DPPLHSpTAI-NH2} and the cellular lysates expressing HA-EGFP-Plk1.
A biotinylated p-T78 peptide was first diluted with 1× coating solution (KPL Inc., Gaithersburg, Md.) to the final concentration of 0.3 μM, and then 100 μl of the resulting solution was immobilized onto a 96-well streptavidin-coated plate (Nalgene Nunc, Rochester, N.Y.). The wells were washed once with PBS plus 0.05% Tween20 (PBST), and incubated with 200 μl of PBS plus 1% BSA (blocking buffer) for 1 h to prevent non-specific binding. […] Following the incubation, ELISA plates were washed 4 times with PBST. To detect bound HA-EGFP-Plk1, the plates were probed for 2 h with 100 μl/well of anti-HA antibody at a concentration of 0.5 μg/ml in blocking buffer and then washed 5 times. The plates were further probed for 1 h with 100 μl/well of HRP-conjugated secondary antibody (GE Healthcare, Piscataway, N.J.) at a 1:1,000 dilution in blocking buffer. The plates were washed 5 times with PBST and incubated with 100 μl/well of 3,3′,5,5′-tetramethylbenzidine (TMB) solution (Sigma, St. Louis, Mo.) as a substrate until a desired absorbance was reached. […] The optical density (O.D.) was measured at 450 nm by using an ELISA plate reader (Molecular Devices, Sunnyvale, Calif.).

HeLa cells = type: cell-based
Protocol: Cell culture, analysis of the cell proliferation and aberrant mitotic population, and indirect immunofluorescence microscopy: HeLa cervical carcinoma cell line CCL2, 293A and 293T cells were cultured as recommended by the American Type Culture Collection (Manassas, Va.), were cultured as recommended by American Type Culture Collection (Manassas, Va.). To prepare mitotic 293A cells expressing HA-EGFP-Plk1, cells were infected with adenovirus expressing HA-EGFP-Plk1 and arrested with 200 ng/ml of nocodazole for 16 h. To analyze the effect of the indicated compounds in cultured cells, logarithmically growing HeLa cells were treated with 200 μM of the indicated compounds for 24 h (a sufficient amount of time to enrich mitotically-arrested cells), treated with Hoechst 33342 for […], and then fixed with 4% paraformaldehyde.
Cell-based growth inhibition assays were performed.

[4] = 37° C., read-out: Half-life of peptides in culture medium

T1 sequence (P53350 whole entry): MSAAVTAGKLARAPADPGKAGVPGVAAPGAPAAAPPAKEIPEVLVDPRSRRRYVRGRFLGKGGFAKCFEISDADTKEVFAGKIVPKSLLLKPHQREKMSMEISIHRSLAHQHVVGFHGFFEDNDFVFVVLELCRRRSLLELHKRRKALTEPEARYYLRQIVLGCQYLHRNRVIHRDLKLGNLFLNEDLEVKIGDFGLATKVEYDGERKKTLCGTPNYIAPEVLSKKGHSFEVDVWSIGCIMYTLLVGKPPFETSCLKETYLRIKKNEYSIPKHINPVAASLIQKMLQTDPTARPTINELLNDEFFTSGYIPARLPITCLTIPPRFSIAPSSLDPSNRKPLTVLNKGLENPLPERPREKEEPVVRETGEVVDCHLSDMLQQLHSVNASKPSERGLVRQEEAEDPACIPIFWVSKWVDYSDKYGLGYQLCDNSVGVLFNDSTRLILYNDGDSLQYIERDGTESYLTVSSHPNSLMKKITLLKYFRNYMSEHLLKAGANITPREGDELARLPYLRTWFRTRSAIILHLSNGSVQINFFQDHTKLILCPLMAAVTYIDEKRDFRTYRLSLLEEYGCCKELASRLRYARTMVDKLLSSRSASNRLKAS

Row | half-life at 200 μM ([2]; 200 μM peptide in culture medium, 37° C., read-out: Half-life of peptides in culture medium) [h] | Structure (SMILES) | half-life at 200 μM (Porcine Liver Esterase) [h] | half-life at 1 μM [1] [h] | half-life at 1 μM [2, 4] [h] | pIC50 [3] | pIC50 (HeLa cells) | hydrolysis product detected after 24 h incubation ([2]; 200 μM peptide in culture medium, 24 h)
1 | – | CC(=O)N1CCC[C@H]1C(=O)N[C@@H](CC(C)C)C(=O)N[C@@H](Cc1c[nH]cn1)C(=O)N[C@@H](CO)C(=O)N[C@H](C(N)=O)[C@@H](C)OP(=O)(OCOC(=O)C(C)(C)C)OCOC(=O)C(C)(C)C [Compound A1, Ac-Pro-Leu-His-Ser-Thr(PO2POM2)-amide] (Ac-PLHS[X1]-NH2) | 0.113 | – | – | – | – | –
2 | – | CC(=O)N1CCC[C@H]1C(=O)N[C@@H](CC(C)C)C(=O)N[C@@H](Cc1c[nH]cn1)C(=O)N[C@@H](CO)C(=O)N[C@H](C(N)=O)[C@@H](C)CP(=O)(OCOC(=O)C(C)(C)C)OCOC(=O)C(C)(C)C [Compound A3] (Ac-PLHS[X2]-NH2) | 0.085 | – | – | – | – | –
3 | 7.43 | CC(=O)N1CCC[C@H]1C(=O)N[C@@H](CC(C)C)C(=O)N[C@@H](Cc1cncn1CCCCCCCCc1ccccc1)C(=O)N[C@@H](CO)C(=O)N[C@H](C(N)=O)[C@@H](C)OP(=O)(OCOC(=O)C(C)(C)C)OCOC(=O)C(C)(C)C [Compound A5] (Ac-PL[His(π-(CH2)8Ph)]S[X1]-NH2) | 1.9 | 2.32 | 0.537 | – | – | –
4 | – | CC(=O)N1CCC[C@H]1C(=O)N[C@@H](CC(C)C)C(=O)N[C@@H](Cc1c[n+](CCO)cn1CCCCCCCCc1ccccc1)C(=O)N[C@@H](CO)C(=O)N[C@H](C(N)=O)[C@@H](C)OP(=O)(O)OCOC(=O)C(C)(C)C [Compound A10] | 4 | 1.48 | 6.87 | 8.03 | 4.24 | ^a<5% hydrolysis product could be detected after 24 h incubation.
